Data as given in patent publication EP0033503A2, “Medicaments with cytostatic activity and use of cyclic compounds, in which the heterocyclic N-ring atoms are substituted by several glycidyl groups, in pharmaceutical compositions” (Henkel Kommanditgesellschaft auf Aktien, priority 1980, dated 1981).
Read-outs that look alike come from different tables or passages of the source.

Tested on: Tumorart P 388 (Leukämie)
Assay: Survival of mice bearing P 388 leukemia (NCI protocol 1200), T/C
Type: in vivo, Maus
Settings: for Testergebnis in % T/C: repeat experiment
Excerpt: Die nachfolgenden Versuche wurden durchgeführt nach Testvorschriften des National Cancer Institute Bethesda, Maryland 200014, veröffentlicht in Cancer Chemotherapy Reports" Part. 3, September 1972, Vol. 3, Nr. 2. Als Wirksubstanz wurde 1,3-Diglycidyl-benzimidazolon des i vorstehenden Beispiels 1 verwendet. Die Substanz wurde als wäßrige, 1%ige Injektionslösung unmittelbar vor der Applikation frisch hergestellt.
Bei Mäusen wurde gemäß Protokoll 1200 (Seite 91, c.) die Tumorart P 388 (Leukämie) i.p. mit 10^6 Zellen/Maus gesetzt. Die unbehandelten Tiere hatten eine mittlere überlebensdauer von 9,9 Tagen.
Es wird der Wirkstoff appliziert. Der Wirkstoff wird dabei in 9.Gaben in unterschiedlichen Versuchsreihen einmal zu je 200 mg/kg und in einer anderen zu 100 mg/kg und in einer dritten Versuchsreihe zu je 50 mg/kg verabreicht. In beiden Fällen wird eine signifikante Verlängerung der Lebensdauer der behandelten Testtiere gegenüber der Kontrollgruppe der nicht behandelten Tiere erzielt. […] Bei der Testgruppe mit der Dosis von 100 mg/kg beträgt die durchschnittliche Lebenserwartung der Versuchstiere 18 Tage, T/C 181 %. Die Gruppe mit der Dosis 50 mg/kg hatte eine durchschnittliche Lebenserwartung von 15,3 Tagen, T/C 154 %. […]

SMILES | response vs control in vivo at 50 mg/kg (Mus musculus, P388, read-out: Verlängerungsrate T/C (Testergebnis in % T/C), 50 mg/kg per single dose, 9 doses, first test series) [%] | response vs control in vivo at 100 mg/kg (Mus musculus, P388, read-out: Verlängerungsrate T/C (Testergebnis in % T/C), 100 mg/kg per single dose, 9 doses, first test series) [%] | response vs control in vivo at 200 mg/kg (Mus musculus, P388, read-out: Verlängerungsrate T/C (Testergebnis in % T/C), 200 mg/kg per single dose, 9 doses, first test series) [%] | Testergebnis in % T/C (25 mg/kg) [%] | durchschnittliche Lebenserwartung der Versuchstiere (50 mg/kg per single dose, 9 doses) | Testergebnis in % T/C (50 mg/kg) [%] | durchschnittliche Lebenserwartung der Versuchstiere (100 mg/kg per single dose, 9 doses) [Tage] | Testergebnis in % T/C (100 mg/kg) [%] | response vs control in vivo at 50 mg/kg (Mus musculus, P388, 50 mg/kg per single dose, 9 doses, first test series, read-out: Verlängerungsrate T/C (Testergebnis in % T/C)) [%] | response vs control in vivo at 100 mg/kg (Mus musculus, P388, 100 mg/kg per single dose, 9 doses, first test series, read-out: Verlängerungsrate T/C (Testergebnis in % T/C)) [%] | erhöhte Lebenserwartung gegenüber einer Kontrollgruppe nicht behandelter Versuchstiere (animal test at 100 mg/kg and 50 mg/kg) [%]
O=c1c2c(ncn2CC2CO2)n(CC2CO2)c(=O)n1CC1CO1 (centres unmarked) [Beispiel 23, 1,3,7-Triglycidyl-xanthin] | 147 | 147 | 173 | – | – | – | – | – | – | – | –
CC1(C)C(=O)N(CC2CO2)C(=O)N1CC1CO1 (centres unmarked) [1,3-Diglycidyl-5,5-dimethylhydantoin] | – | – | – | 136 | 15,7 Tage | 151 | 22 | 239 | 158 | 222 | ≤ 220
